According to US12139492B2 (Endotarget Inc., priority 2021, dated 2024):

Key:
[1] = system: Mino cells; assay: Antiproliferative effect, MTS cell viability assay, Mino cells; assay type: cell-based; conditions: Homo sapiens, MINO, Mino mantle cell lymphoma cells; read-out: IC50 (anti-proliferation) Mino cells
In short: (§1)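 MTS read-out, A490 of formazan from metabolically active cells; compound 0–10 μM (0, 0.001, 0.01, 0.1, 1, 10 μM), 72 h exposure.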

[2] = molecular target: BTK (Homo sapiens, UniProt Q06187); assay: Degradation of BTK protein in Namalwa cells (Western blot; DC50, Dmax); conditions: for DC50: BTK degradation, cell line not given
BTK, sequence (Q06187 whole entry): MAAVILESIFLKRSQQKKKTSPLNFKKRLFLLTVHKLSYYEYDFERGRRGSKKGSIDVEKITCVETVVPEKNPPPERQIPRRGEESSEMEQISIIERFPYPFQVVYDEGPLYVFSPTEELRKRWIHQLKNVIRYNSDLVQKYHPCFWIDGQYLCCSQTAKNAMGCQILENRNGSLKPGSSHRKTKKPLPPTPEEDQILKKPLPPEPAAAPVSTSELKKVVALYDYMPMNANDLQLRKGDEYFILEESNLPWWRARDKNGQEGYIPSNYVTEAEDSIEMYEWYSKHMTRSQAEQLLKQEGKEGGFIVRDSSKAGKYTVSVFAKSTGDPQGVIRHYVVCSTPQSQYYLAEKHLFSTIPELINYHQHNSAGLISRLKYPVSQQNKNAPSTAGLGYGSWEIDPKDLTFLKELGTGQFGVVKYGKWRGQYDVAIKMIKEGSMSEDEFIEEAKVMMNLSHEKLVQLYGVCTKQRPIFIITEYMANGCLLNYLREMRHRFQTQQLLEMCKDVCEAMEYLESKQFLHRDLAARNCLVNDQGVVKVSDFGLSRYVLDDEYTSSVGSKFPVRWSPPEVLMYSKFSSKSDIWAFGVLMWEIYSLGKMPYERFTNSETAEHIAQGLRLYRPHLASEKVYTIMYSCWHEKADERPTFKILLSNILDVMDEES

[3] = system: JeKo-1 cells; assay: Antiproliferative effect, MTS cell viability assay, JeKo-1 cells; assay type: cell-based; conditions: Homo sapiens; JeKo-1 mantle cell lymphoma cells; read-out: IC50 (anti-proliferation) JeKO-1 cells
In short: as §1

Compound | IC50 [1] | Dmax [2] | DC50 [2] | IC50 [3]
NC(=O)c1c(-c2ccc(Oc3ccccc3)cc2)nn2c1NCCC2C1CCN(C2CCN(CCN3CCC(c4ccc5c(c4)C(=O)N(C4CCC(=O)NC4=O)C5=O)CC3)CC2)CC1 (centres unmarked) [Compound 311, 7-(1′-(2-(4-(2-(2,6-dioxopiperidin-3-yl)-1,3-dioxoisoindolin-5-yl)piperidin-1-yl)ethyl)-[1,4′-bipiperidin]-4-yl)-2-(4-phenoxyphenyl)-4,5,6,7-tetrahydropyrazolo[1,5-a]pyrimidine-3-carboxamide] | > 10 µM | > 75% | > 0.05 µM | > 10 µM
NC(=O)c1c(-c2ccc(Oc3ccccc3)cc2)nn2c1NCCC2C1CCN(C2CCN(CCN3CCC(c4ccc5c(c4)CN(C4CCC(=O)NC4=O)C5=O)CC3)CC2)CC1 (centres unmarked) [Compound 312, 7-(1′-(2-(4-(2-(2,6-dioxopiperidin-3-yl)-1-oxoisoindolin-5-yl)piperidin-1-yl)ethyl)-[1,4′-bipiperidin]-4-yl)-2-(4-phenoxyphenyl)-4,5,6,7-tetrahydropyrazolo[1,5-a]pyrimidine-3-carboxamide] | > 10 µM | > 75% | > 0.05 µM | > 10 µM
NC(=O)c1c(-c2ccc(Oc3ccccc3)cc2)nn2c1NCCC2C1CCN(CC2CCN(CC3CCN(c4ccc5c(c4)C(=O)N(C4CCC(=O)NC4=O)C5=O)CC3)CC2)CC1 (centres unmarked) [Compound 313, 7-(1-((1-((1-(2-(2,6-dioxopiperidin-3-yl)-1,3-dioxoisoindolin-5-yl)piperidin-4-yl)methyl)piperidin-4-yl)methyl)piperidin-4-yl)-2-(4-phenoxyphenyl)-4,5,6,7-tetrahydropyrazolo[1,5-a]pyrimidine-3-carboxamide] | 1 to 10 µM | > 90% | 0.01 to 0.05 µM | 1 to 10 µM
NC(=O)c1c(-c2ccc(Oc3ccccc3)cc2)nn2c1NCCC2C1CCN(CC2CCN(CC3CCN(c4ccc5c(c4)CN(C4CCC(=O)NC4=O)C5=O)CC3)CC2)CC1 (centres unmarked) [Compound 314, 7-(1-((1-((1-(2-(2,6-dioxopiperidin-3-yl)-1-oxoisoindolin-5-yl)piperidin-4-yl)methyl)piperidin-4-yl)methyl)piperidin-4-yl)-2-(4-phenoxyphenyl)-4,5,6,7-tetrahydropyrazolo[1,5-a]pyrimidine-3-carboxamide] | 1 to 10 µM | > 90% | 0.01 to 0.05 µM | 1 to 10 µM
NC(=O)c1c(-c2ccc(Oc3ccccc3)cc2)nn2c1NCCC2C1CCN(CC2CCN(CCN3CCN(c4ccc5c(c4)C(=O)N(C4CCC(=O)NC4=O)C5=O)CC3)CC2)CC1 (centres unmarked) [Compound 315, 7-(1-((1-(2-(4-(2-(2,6-dioxopiperidin-3-yl)-1,3-dioxoisoindolin-5-yl)piperazin-1-yl)ethyl)piperidin-4-yl)methyl)piperidin-4-yl)-2-(4-phenoxyphenyl)-4,5,6,7-tetrahydropyrazolo[1,5-a]pyrimidine-3-carboxamide] | 1 to 10 µM | > 75% | > 0.05 µM | 1 to 10 µM
NC(=O)c1c(-c2ccc(Oc3ccccc3)cc2)nn2c1NCCC2C1CCN(CC2CCN(CCN3CCN(c4ccc5c(c4)CN(C4CCC(=O)NC4=O)C5=O)CC3)CC2)CC1 (centres unmarked) [Compound 316, 7-(1-((1-(2-(4-(2-(2,6-dioxopiperidin-3-yl)-1-oxoisoindolin-5-yl)piperazin-1-yl)ethyl)piperidin-4-yl)methyl)piperidin-4-yl)-2-(4-phenoxyphenyl)-4,5,6,7-tetrahydropyrazolo[1,5-a]pyrimidine-3-carboxamide] | 1 to 10 µM | > 75% | 0.01 to 0.05 µM | 1 to 10 µM
NC(=O)c1c(-c2ccc(Oc3ccccc3)cc2)nn2c1NCCC2C1CCN(CC2CCN(CCC3CCN(c4ccc5c(c4)C(=O)N(C4CCC(=O)NC4=O)C5=O)CC3)CC2)CC1 (centres unmarked) [Compound 317, 7-(1-((1-(2-(1-(2-(2,6-dioxopiperidin-3-yl)-1,3-dioxoisoindolin-5-yl)piperidin-4-yl)ethyl)piperidin-4-yl)methyl)piperidin-4-yl)-2-(4-phenoxyphenyl)-4,5,6,7-tetrahydropyrazolo[1,5-a]pyrimidine-3-carboxamide] | 1 to 10 µM | > 75% | > 0.05 µM | > 10 µM
NC(=O)c1c(-c2ccc(Oc3ccccc3)cc2)nn2c1NCCC2C1CCN(CC2CCN(CCC3CCN(c4ccc5c(c4)CN(C4CCC(=O)NC4=O)C5=O)CC3)CC2)CC1 (centres unmarked) [Compound 318, 7-(1-((1-(2-(1-(2-(2,6-dioxopiperidin-3-yl)-1-oxoisoindolin-5-yl)piperidin-4-yl)ethyl)piperidin-4-yl)methyl)piperidin-4-yl)-2-(4-phenoxyphenyl)-4,5,6,7-tetrahydropyrazolo[1,5-a]pyrimidine-3-carboxamide] | 1 to 10 µM | > 75% | > 0.05 µM | > 10 µM
NC(=O)c1c(-c2ccc(Oc3ccccc3)cc2)nn2c1NCCC2C1CCN(CC2CCN(CCN3CCC(c4ccc5c(c4)C(=O)N(C4CCC(=O)NC4=O)C5=O)CC3)CC2)CC1 (centres unmarked) [Compound 319, 7-(1-((1-(2-(4-(2-(2,6-dioxopiperidin-3-yl)-1,3-dioxoisoindolin-5-yl)piperidin-1-yl)ethyl)piperidin-4-yl)methyl)piperidin-4-yl)-2-(4-phenoxyphenyl)-4,5,6,7-tetrahydropyrazolo[1,5-a]pyrimidine-3-carboxamide] | 1 to 10 µM | > 75% | 0.01 to 0.05 µM | > 10 µM
NC(=O)c1c(-c2ccc(Oc3ccccc3)cc2)nn2c1NCCC2C1CCN(CC2CCN(CCN3CCC(c4ccc5c(c4)CN(C4CCC(=O)NC4=O)C5=O)CC3)CC2)CC1 (centres unmarked) [Compound 320, 7-(1-((1-(2-(4-(2-(2,6-dioxopiperidin-3-yl)-1-oxoisoindolin-5-yl)piperidin-1-yl)ethyl)piperidin-4-yl)methyl)piperidin-4-yl)-2-(4-phenoxyphenyl)-4,5,6,7-tetrahydropyrazolo[1,5-a]pyrimidine-3-carboxamide] | 1 to 10 µM | > 90% | 0.01 to 0.05 µM | 1 to 10 µM
NC(=O)c1c(-c2ccc(Oc3ccccc3)cc2)nn2c1NCC[C@H]2C1CCN(C2CCN(CC3CCN(c4ccc5c(c4)C(=O)N(C4CCC(=O)NC4=O)C5=O)CC3)CC2)CC1 (stereo partly drawn) [Compound 321, (7S)-7-(1′-((1-(2-(2,6-dioxopiperidin-3-yl)-1,3-dioxoisoindolin-5-yl)piperidin-4-yl)methyl)-[1,4′-bipiperidin]-4-yl)-2-(4-phenoxyphenyl)-4,5,6,7-tetrahydropyrazolo[1,5-a]pyrimidine-3-carboxamide] | > 10 µM | > 75% | 0.01 to 0.05 µM | > 10 µM
NC(=O)c1c(-c2ccc(Oc3ccccc3)cc2)nn2c1NCC[C@H]2C1CCN(C2CCN(CC3CCN(c4ccc5c(c4)CN(C4CCC(=O)NC4=O)C5=O)CC3)CC2)CC1 (stereo partly drawn) [Compound 322, (7S)-7-(1′-((1-(2-(2,6-dioxopiperidin-3-yl)-1-oxoisoindolin-5-yl)piperidin-4-yl)methyl)-[1,4′-bipiperidin]-4-yl)-2-(4-phenoxyphenyl)-4,5,6,7-tetrahydropyrazolo[1,5-a]pyrimidine-3-carboxamide] | 1 to 10 µM | > 90% | 0.01 to 0.05 µM | 1 to 10 µM
NC(=O)c1c(-c2ccc(Oc3ccccc3)cc2)nn2c1NCC[C@H]2C1CCN(C2CCN(CCN3CCN(c4ccc5c(c4)C(=O)N(C4CCC(=O)NC4=O)C5=O)CC3)CC2)CC1 (stereo partly drawn) [Compound 323, (7S)-7-(1′-(2-(4-(2-(2,6-dioxopiperidin-3-yl)-1,3-dioxoisoindolin-5-yl)piperazin-1-yl)ethyl)-[1,4′-bipiperidin]-4-yl)-2-(4-phenoxyphenyl)-4,5,6,7-tetrahydropyrazolo[1,5-a]pyrimidine-3-carboxamide] | 1 to 10 µM | > 75% | 0.01 to 0.05 µM | 1 to 10 µM
NC(=O)c1c(-c2ccc(Oc3ccccc3)cc2)nn2c1NCC[C@H]2C1CCN(C2CCN(CCN3CCN(c4ccc5c(c4)CN(C4CCC(=O)NC4=O)C5=O)CC3)CC2)CC1 (stereo partly drawn) [Compound 324, (7S)-7-(1′-(2-(4-(2-(2,6-dioxopiperidin-3-yl)-1-oxoisoindolin-5-yl)piperazin-1-yl)ethyl)-[1,4′-bipiperidin]-4-yl)-2-(4-phenoxyphenyl)-4,5,6,7-tetrahydropyrazolo[1,5-a]pyrimidine-3-carboxamide] | 1 to 10 µM | > 75% | > 0.05 µM | 1 to 10 µM
NC(=O)c1c(-c2ccc(Oc3ccccc3)cc2)nn2c1NCC[C@H]2C1CCN(C2CCN(CCC3CCN(c4ccc5c(c4)C(=O)N(C4CCC(=O)NC4=O)C5=O)CC3)CC2)CC1 (some centres unmarked) [Compound 325] | 1 to 10 µM | > 90% | 0.01 to 0.05 µM | 1 to 10 µM
NC(=O)c1c(-c2ccc(Oc3ccccc3)cc2)nn2c1NCC[C@H]2C1CCN(C2CCN(CCC3CCN(c4ccc5c(c4)CN(C4CCC(=O)NC4=O)C5=O)CC3)CC2)CC1 (stereo partly drawn) [Compound 326, (7S)-7-(1′-(2-(1-(2-(2,6-dioxopiperidin-3-yl)-1-oxoisoindolin-5-yl)piperidin-4-yl)ethyl)-[1,4′-bipiperidin]-4-yl)-2-(4-phenoxyphenyl)-4,5,6,7-tetrahydropyrazolo[1,5-a]pyrimidine-3-carboxamide] | 1 to 10 µM | > 90% | 0.01 to 0.05 µM | 1 to 10 µM
NC(=O)c1c(-c2ccc(Oc3ccccc3)cc2)nn2c1NCC[C@H]2C1CCN(C2CCN(CCN3CCC(c4ccc5c(c4)C(=O)N(C4CCC(=O)NC4=O)C5=O)CC3)CC2)CC1 (stereo partly drawn) [Compound 327, (7S)-7-(1′-(2-(4-(2-(2,6-dioxopiperidin-3-yl)-1,3-dioxoisoindolin-5-yl)piperidin-1-yl)ethyl)-[1,4′-bipiperidin]-4-yl)-2-(4-phenoxyphenyl)-4,5,6,7-tetrahydropyrazolo[1,5-a]pyrimidine-3-carboxamide] | 1 to 10 µM | > 75% | 0.01 to 0.05 µM | > 10 µM
